This note sets out measurements from patent publication US20240207336A1, “PURIFIED PS[…] […] ACIDIFIED ACETONE” (PSILO SCIENTIFIC LTD, priority 2021, published 2024).

The nature of the data set: oxidation (decay) of psilocin over time, applicant's own data.

Regarding `CN(C)CCc1c[nH]c2cccc(O)c12` [psilocin], the “decay of psilocin (oxidation)” value runs as follows: (after 5 hours, moist and/or high light environment) about 25%; (at 20 hours when shielded from light) 40-60%; (within 30 minutes, moist and/or high light environment) “about 10%”.
